Laboratory results taken from publication PMC10657444, “Design and evaluation of tadpole-like conformational antimicrobial peptides” (Communications Biology, 2023).
Values joined by “and” are separate entries in the source; they are usually repeats but may differ in a detail not shown here. Equal entries are not always repeated. Residues, ends and D or L forms follow the SMILES beside them.

Experiments:
MRSA USA 300 [1] = experiment: Time-kill assay; type: cell-based, Staphylococcus aureus
Description: (§1) Time-kill assays were done in tubes (in 1.5 mL of LB) and antibiotics at the 1 ×, 2 ×, 4 × and 8 × MIC. Tubes were inoculated (5 × 10^6 CFU/mL) with MRSA USA 300 and K. pneumoniae ATCC 700603 and incubated at 37 °C under shaking. Serial dilutions of the cultures were plated at each desired time point (0, 1, 3, 6, and 24 h), using a multichannel pipette as follows: in line 1 of a 96-well plate, 100 µL of bacterial suspension was added, while 90 µL of 0.9% sterile saline per well was added to the other lines. At selected time points, 100 µL of bacterial suspension was transferred from the time-kill assay plate to the first line. The wells were further diluted 1 in 10 (0.9% saline) for the appropriate number of dilutions and 10 μL of each dilution was spotted in duplicate onto MH agar plates, then incubated overnight at 37°C. The colonies in each spot were counted and used to calculate the number of viable CFU/mL remaining in the original culture by considering the dilution factors.

[2] = tested on: K. pneumoniae ATCC 700603; experiment: Time-kill assay; type: cell-based, Klebsiella pneumoniae
Description: as §1

MRSA USA 300 [3] = experiment: microbe, parasite or virus in culture; type: cell-based, Staphylococcus aureus
Description: MRSA USA 300 and K. pneumoniae ATCC 700603 were employed to assess the development of resistance. From inoculated microtiter panels, an aliquot of the well with the highest concentration permitting growth was taken and back diluted in fresh media to a turbidity of a 0.5 McFarland standard. This suspension was then further diluted and used to inoculate a fresh MIC panel resulting in a final concentration of 5 × 10^6 CFU/mL. Panels were incubated according to CLSI guidelines (M07, 11th edition, 2018), MICs were recorded and the next inoculum was prepared from the well containing the highest concentration of drug that allowed growth in identical fashion as described above.

For `CC[C@H](C)[C@H](NC(=O)[C@H](CCCNC(=N)N)NC(=O)[C@H](CCCNC(=N)N)NC(=O)[C@H](CC(C)C)NC(=O)[C@H](Cc1ccccc1)NC(=O)[C@@H](N)CCCNC(=N)N)C(=O)N[C@@H](Cc1ccccc1)C(=O)N[C@@H](Cc1ccccc1)C(=O)N[C@@H](Cc1ccccc1)C(=O)N[C@@H](Cc1ccccc1)C(N)=O` [HT2] (H-RFLRRIFFFF-NH2), the “viable count, time-kill” value (MRSA USA 300 [1]; 4 × MIC, 3 h) was 840000 CFU/mL and 870000 CFU/mL and 910000 CFU/mL, the “viable count, time-kill” value (MRSA USA 300 [1]; 4 × MIC, 6 h) was 150000 CFU/mL and 160000 CFU/mL and 180000 CFU/mL and the “viable count, time-kill” value (MRSA USA 300 [1]; 4 × MIC, 24 h) was 68000 CFU/mL and 71000 CFU/mL and 72000 CFU/mL. For the same compound, the “viable count, time-kill” value (MRSA USA 300 [1]; 8 × MIC, 0 h) was 3600000 CFU/mL and 3500000 CFU/mL and 3200000 CFU/mL, the “viable count, time-kill” value (MRSA USA 300 [1]; 8 × MIC, 1 h) was 990000 CFU/mL and 950000 CFU/mL and 910000 CFU/mL and the “viable count, time-kill” value (MRSA USA 300 [1]; 8 × MIC, 3 h) was 580000 CFU/mL and 590000 CFU/mL. The “viable count, time-kill” value (MRSA USA 300 [1]; 8 × MIC, 6 h) was 68000 CFU/mL and 70000 CFU/mL and 77000 CFU/mL, the “viable count, time-kill” value (MRSA USA 300 [1]; 8 × MIC, 24 h) was 1000 CFU/mL and 1100 CFU/mL and 1400 CFU/mL and the “killing outcome (in words)” value (MRSA USA 300 [1]; 8 × MIC, after 24 h) was “cannot completely be killed”. For the same compound, the “viable count, time-kill” value (MRSA USA 300 [1]; MIC, 0 h) was 3600000 CFU/mL and 3500000 CFU/mL and 3200000 CFU/mL, the “viable count, time-kill” value (MRSA USA 300 [1]; MIC, 1 h) was 4600000 CFU/mL and 4900000 CFU/mL and the “viable count, time-kill” value (MRSA USA 300 [1]; MIC, 3 h) was 2100000 CFU/mL and 2000000 CFU/mL and 2300000 CFU/mL. For the same compound, the “viable count, time-kill” value (MRSA USA 300 [1]; MIC, 6 h) was 2800000 CFU/mL and 2500000 CFU/mL and 1700000 CFU/mL, the “viable count, time-kill” value (MRSA USA 300 [1]; MIC, 24 h) was 4100000000 CFU/mL and 4400000000 CFU/mL and 4900000000 CFU/mL and the “viable count, time-kill” value ([2]; 2 × MIC, 0 h) was 3000000 CFU/mL and 3500000 CFU/mL and 3400000 CFU/mL. The “viable count, time-kill” value ([2]; 2 × MIC, 1 h) was 275000 CFU/mL and 375000 CFU/mL and 310000 CFU/mL, the “viable count, time-kill” value ([2]; 2 × MIC, 3 h) was 33000 CFU/mL and 31000 CFU/mL and the “viable count, time-kill” value ([2]; 2 × MIC, 6 h) was 14000 CFU/mL and 18000 CFU/mL and 16000 CFU/mL. The “viable count, time-kill” value ([2]; 2 × MIC, 24 h) was 18000 CFU/mL and 24000 CFU/mL and 23000 CFU/mL, the “viable count, time-kill” value ([2]; 4 × MIC, 0 h) was 3000000 CFU/mL and 3500000 CFU/mL and 3400000 CFU/mL and the “viable count, time-kill” value ([2]; 4 × MIC, 1 h) was 70000 CFU/mL and 65000 CFU/mL and 66000 CFU/mL. The “viable count, time-kill” value ([2]; 4 × MIC, 6 h) was 8000 CFU/mL and 7400 CFU/mL and 9000 CFU/mL, the “viable count, time-kill” value ([2]; 4 × MIC, 24 h) was 16000 CFU/mL and 21000 CFU/mL and 19000 CFU/mL and the “viable count, time-kill” value ([2]; 8 × MIC, 0 h) was 3000000 CFU/mL and 3500000 CFU/mL and 3400000 CFU/mL. For the same compound, the “viable count, time-kill” value ([2]; 8 × MIC, 1 h) was 520000 CFU/mL and 540000 CFU/mL and 550000 CFU/mL, the “viable count, time-kill” value ([2]; 8 × MIC, 3 h) was 500 CFU/mL and 700 CFU/mL and the “viable count, time-kill” value ([2]; 8 × MIC, 24 h) was 100 CFU/mL and 200 CFU/mL. The “killing outcome (in words)” value ([2]; 8 × MIC, after 24 h) was “cannot completely be killed”, the “viable count, time-kill” value ([2]; MIC, 0 h) was 3000000 CFU/mL and 3500000 CFU/mL and 3400000 CFU/mL and the “viable count, time-kill” value ([2]; MIC, 1 h) was 400000 CFU/mL and 330000 CFU/mL and 410000 CFU/mL. The “viable count, time-kill” value ([2]; MIC, 6 h) was 430000 CFU/mL and 570000 CFU/mL and 480000 CFU/mL, the “viable count, time-kill” value ([2]; MIC, 24 h) was 51000000 CFU/mL and 58000000 CFU/mL and 54000000 CFU/mL and the “Concentration (MIC in drug resistance assay)” value (from here on “Concentration”) (MRSA USA 300 [3]; MRSA USA 300, day 0) was 3.125 µg/mL. The “Concentration” value (MRSA USA 300 [3]; MRSA USA 300, day 1) was 3.125 µg/mL, the “Concentration” value (MRSA USA 300 [3]; MRSA USA 300, day 2) was 3.125 µg/mL and the “Concentration” value (MRSA USA 300 [3]; MRSA USA 300, day 3) was 3.125 µg/mL. For the same compound, the “Concentration” value (MRSA USA 300 [3]; MRSA USA 300, day 11) was 3.125 µg/mL, the “Concentration” value (MRSA USA 300 [3]; MRSA USA 300, day 13) was 3.125 µg/mL and the “Concentration” value (MRSA USA 300 [3]; MRSA USA 300, day 22) was 12.5 µg/mL. For the same compound, the “Concentration” value (MRSA USA 300 [3]; MRSA USA 300, day 26) was 12.5 µg/mL, the “Concentration” value (MRSA USA 300 [3]; MRSA USA 300, day 27) was 12.5 µg/mL and the “Concentration” value (MRSA USA 300 [3]; MRSA USA 300, day 28) was 12.5 µg/mL. For the same compound, the “Concentration” value (MRSA USA 300 [3]; MRSA USA 300, day 29) was 12.5 µg/mL, the “Concentration” value (MRSA USA 300 [3]; MRSA USA 300, day 32) was 12.5 µg/mL and the “Concentration” value (MRSA USA 300 [3]; MRSA USA 300, day 33) was 12.5 µg/mL. For the same compound, the “Concentration” value (MRSA USA 300 [3]; MRSA USA 300, day 34) was 12.5 µg/mL, the “Concentration” value (MRSA USA 300 [3]; MRSA USA 300, day 35) was 12.5 µg/mL and the “Concentration” value (MRSA USA 300 [3]; MRSA USA 300, day 37) was 12.5 µg/mL. The “Concentration” value (MRSA USA 300 [3]; MRSA USA 300, day 38) was 12.5 µg/mL, the “Concentration” value (MRSA USA 300 [3]; MRSA USA 300, day 39) was 12.5 µg/mL and the “Concentration” value (MRSA USA 300 [3]; MRSA USA 300, day 40) was 12.5 µg/mL. The “increase in MIC after 40 passages” value (MRSA USA 300 [3]; serial passage at sub-MIC) was “four-fold”.
